Four compounds from ChEMBL document CHEMBL4325863, “Investigating alkyl nitrates as nitric oxide releasing precursors of multitarget acetylcholinesterase-monoamine oxidase B inhibitors” (Eur J Med Chem, 2019) can be followed below.

Data set [1] is described as follows: Drug metabolism in pH 7.4 PBS buffer assessed as 7-{[1-(3-Hydroxypropyl)piperidin-4-yl]methoxy}-3,4-dimethyl-2H-chromen-2-one formation at 100 uM up to 30 hrs in presence of cysteine by RP-HPLC method.
Data set [2] is described as follows: Apparent permeability from apical to basolateral side in MDCK2-MDR1 cells by UV-Visible spectrophotometric method. Type of data set: ADME, cell-based, Canis lupus familiaris. The settings on record: dog, MDCK-MDR1.
The test system of data set [3] is SH-SY5Y. The experiment in a line: Cytotoxicity against human SH-SY5Y cells assessed as reduction in cell viability after 24 hrs by MTT assay. Type of data set: cell-based. Background: Tetrazolium dyes change colour on reduction, which living cells bring about.
Data set [4] concerns the target T1, Cholinesterase (Homo sapiens, UniProt P06276). The experiment in a line: Inhibition of human serum BuChE at 10 uM using butyrylthiocholine iodide as substrate by Ellman's method relative to control. Background: Ellman's reagent forms a yellow product with free thiols.
Data set [5] can be described thus: Drug metabolism in pH 7.4 PBS buffer assessed as 7-{[1-(3-Hydroxypropyl)piperidin-4-yl]methoxy}-3,4-dimethyl-2H-chromen-2-one formation at 100 uM up to 30 hrs in presence of glutathione by RP-HPLC method.
Data set [6] can be described thus: Drug metabolism in pH 7.4 PBS buffer assessed as 7-{[1-(3-Hydroxypropyl)piperidin-4-yl]methoxy}-3,4-dimethyl-2H-chromen-2-one formation at 100 uM after 24 hrs by RP-HPLC method.
Data set [7] can be described thus: Half life in human serum at 100 uM by RP-HPLC method. Type of data set: ADME, cell-free.
Data set [8] has as its target T2, Amine oxidase [flavin-containing] A (Homo sapiens, UniProt P21397).
T2 sequence (P21397 whole entry): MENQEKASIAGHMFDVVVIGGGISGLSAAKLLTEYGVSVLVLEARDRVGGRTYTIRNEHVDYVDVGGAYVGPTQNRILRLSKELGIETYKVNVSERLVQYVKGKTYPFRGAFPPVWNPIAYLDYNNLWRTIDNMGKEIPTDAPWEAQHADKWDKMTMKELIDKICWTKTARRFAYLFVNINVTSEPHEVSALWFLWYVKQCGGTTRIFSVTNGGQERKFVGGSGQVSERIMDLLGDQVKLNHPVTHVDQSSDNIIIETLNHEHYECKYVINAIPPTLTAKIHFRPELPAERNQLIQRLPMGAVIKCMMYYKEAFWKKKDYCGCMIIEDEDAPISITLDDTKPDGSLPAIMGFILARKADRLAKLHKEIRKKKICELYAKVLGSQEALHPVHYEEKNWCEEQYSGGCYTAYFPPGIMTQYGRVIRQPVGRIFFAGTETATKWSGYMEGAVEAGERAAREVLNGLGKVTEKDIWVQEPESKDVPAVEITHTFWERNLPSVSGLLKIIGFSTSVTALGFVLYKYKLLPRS
The experiment in a line: Inhibition of recombinant human MAO-A expressed in baculovirus infected insect cell microsomes at 10 uM using kynuramine as substrate measured after 30 mins by fluorescence based assay relative to control. The following applies: 0.5 h.

Data set [9] is described as follows: Drug metabolism in PBS buffer assessed as nitric oxide release at 150 uM in presence of cysteine by Griess reagent based UV-Visible spectrophotometric method. The following applies: TDE = time-dependent effect.
The subject of data set [10] is SH-SY5Y. Kind of data set: Neuroprotection against rotenone/H2O2-induced cell death in human SH-SY5Y cells assessed as increase in cell viability preincubated for 24 hrs followed by rotenone/H2O2 addition measured after 24 hrs by MTT assay. The class given is functional, cell-based.
A short description of data set [11]: Efflux ratio of apparent permeability in MDCK2-MDR1 cells by UV-Visible spectrophotometric method. Type of data set: ADME, cell-based, Canis lupus familiaris. The settings on record: dog, MDCK-MDR1.
The target of a further data set is Acetylcholinesterase (Homo sapiens, UniProt P22303). Kind of data set: Inhibition of human recombinant AChE using acetylthiocholine iodide as substrate by Ellman's method.
Sequence of Acetylcholinesterase (P22303 whole entry): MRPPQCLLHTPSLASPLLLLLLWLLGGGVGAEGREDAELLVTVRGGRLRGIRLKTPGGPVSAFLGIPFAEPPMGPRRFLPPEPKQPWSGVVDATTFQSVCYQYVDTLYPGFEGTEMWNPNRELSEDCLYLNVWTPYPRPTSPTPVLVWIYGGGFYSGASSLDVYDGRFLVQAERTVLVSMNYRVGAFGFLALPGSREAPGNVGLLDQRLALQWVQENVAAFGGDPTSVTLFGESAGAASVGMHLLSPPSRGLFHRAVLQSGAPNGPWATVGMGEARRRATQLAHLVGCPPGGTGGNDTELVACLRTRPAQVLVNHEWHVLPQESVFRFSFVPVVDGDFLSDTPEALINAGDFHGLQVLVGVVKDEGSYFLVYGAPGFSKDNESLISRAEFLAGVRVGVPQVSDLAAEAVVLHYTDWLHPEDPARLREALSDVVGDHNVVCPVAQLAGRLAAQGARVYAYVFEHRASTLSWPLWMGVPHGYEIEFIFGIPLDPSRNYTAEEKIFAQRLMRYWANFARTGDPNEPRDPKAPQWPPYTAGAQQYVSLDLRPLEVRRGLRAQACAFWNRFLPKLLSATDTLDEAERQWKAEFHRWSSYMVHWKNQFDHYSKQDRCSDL
Data set [12] has as its target T3, Amine oxidase [flavin-containing] B (Homo sapiens, UniProt P27338).
T3 sequence (P27338 whole entry): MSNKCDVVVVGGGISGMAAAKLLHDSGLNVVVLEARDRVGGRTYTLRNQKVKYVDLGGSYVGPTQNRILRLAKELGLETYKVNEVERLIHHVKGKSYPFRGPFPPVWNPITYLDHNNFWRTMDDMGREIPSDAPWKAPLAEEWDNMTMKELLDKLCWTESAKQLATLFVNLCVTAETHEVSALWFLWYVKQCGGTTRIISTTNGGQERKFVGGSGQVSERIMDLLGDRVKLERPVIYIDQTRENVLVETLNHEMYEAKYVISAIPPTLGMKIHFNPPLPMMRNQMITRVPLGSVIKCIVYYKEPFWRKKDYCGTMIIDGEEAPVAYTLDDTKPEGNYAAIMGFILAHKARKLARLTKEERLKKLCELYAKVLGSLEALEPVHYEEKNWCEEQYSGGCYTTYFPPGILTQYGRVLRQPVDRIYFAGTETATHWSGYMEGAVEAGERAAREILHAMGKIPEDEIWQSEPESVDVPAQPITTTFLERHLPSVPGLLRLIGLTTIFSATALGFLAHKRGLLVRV
The experiment in a line: Inhibition of recombinant human MAO-B expressed in baculovirus infected insect cell microsomes using kynuramine as substrate measured after 30 mins by fluorescence based assay.

Data set [13] is described as follows: Apparent permeability from basolateral to apical side in MDCK2-MDR1 cells by UV-Visible spectrophotometric method. Type of data set: ADME, cell-based, Canis lupus familiaris. The following applies: dog, MDCK-MDR1.
Data set [14] relates to SH-SY5Y. The experiment in a line: Neuroprotection against rotenone/H2O2-induced cell death in human SH-SY5Y cells assessed as increase in cell viability at 0.1 to […] preincubated for 24 hrs followed by rotenone/H2O2 addition measured after 24 hrs by MTT assay. The class given is functional, cell-based.
For data set [15], the target named is T3, Amine oxidase [flavin-containing] B. The experiment in a line: Inhibition of recombinant human MAO-B expressed in baculovirus infected insect cell microsomes at 10 uM using kynuramine as substrate measured after 30 mins by fluorescence based assay relative to control. The settings on record: 0.5 h.
In data set [16] the target is Acetylcholinesterase (Electrophorus electricus) (UniProt O42275). The experiment in a line: Inhibition of electric eel AChE at 10 uM using acetylthiocholine iodide as substrate by Ellman's method relative to control.
Sequence of Acetylcholinesterase (Electrophorus electricus) (O42275 24-633 limits assumed): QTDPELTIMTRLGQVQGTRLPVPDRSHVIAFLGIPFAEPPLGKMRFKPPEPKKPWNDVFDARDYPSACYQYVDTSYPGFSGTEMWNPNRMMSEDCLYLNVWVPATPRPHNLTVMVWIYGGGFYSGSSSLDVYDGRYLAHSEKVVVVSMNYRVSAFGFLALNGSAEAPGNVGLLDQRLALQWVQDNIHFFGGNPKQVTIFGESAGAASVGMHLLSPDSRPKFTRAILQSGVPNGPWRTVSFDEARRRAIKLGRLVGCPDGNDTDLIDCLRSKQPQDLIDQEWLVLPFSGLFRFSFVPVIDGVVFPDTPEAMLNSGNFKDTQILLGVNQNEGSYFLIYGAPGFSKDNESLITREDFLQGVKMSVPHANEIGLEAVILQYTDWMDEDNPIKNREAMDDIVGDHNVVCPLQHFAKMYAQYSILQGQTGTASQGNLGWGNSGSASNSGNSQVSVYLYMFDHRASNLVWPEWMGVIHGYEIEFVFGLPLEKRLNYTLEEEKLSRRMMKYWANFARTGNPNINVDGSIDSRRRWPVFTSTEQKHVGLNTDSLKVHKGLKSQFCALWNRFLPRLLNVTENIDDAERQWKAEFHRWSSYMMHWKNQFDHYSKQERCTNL
Data set [17] deals with Cholinesterase (Equus caballus) (UniProt P81908). The experiment in a line: Inhibition of equine serum BuChE at 10 uM using butyrylthiocholine iodide as substrate by Ellman's method relative to control.
Sequence of Cholinesterase (Equus caballus) (P81908 whole entry): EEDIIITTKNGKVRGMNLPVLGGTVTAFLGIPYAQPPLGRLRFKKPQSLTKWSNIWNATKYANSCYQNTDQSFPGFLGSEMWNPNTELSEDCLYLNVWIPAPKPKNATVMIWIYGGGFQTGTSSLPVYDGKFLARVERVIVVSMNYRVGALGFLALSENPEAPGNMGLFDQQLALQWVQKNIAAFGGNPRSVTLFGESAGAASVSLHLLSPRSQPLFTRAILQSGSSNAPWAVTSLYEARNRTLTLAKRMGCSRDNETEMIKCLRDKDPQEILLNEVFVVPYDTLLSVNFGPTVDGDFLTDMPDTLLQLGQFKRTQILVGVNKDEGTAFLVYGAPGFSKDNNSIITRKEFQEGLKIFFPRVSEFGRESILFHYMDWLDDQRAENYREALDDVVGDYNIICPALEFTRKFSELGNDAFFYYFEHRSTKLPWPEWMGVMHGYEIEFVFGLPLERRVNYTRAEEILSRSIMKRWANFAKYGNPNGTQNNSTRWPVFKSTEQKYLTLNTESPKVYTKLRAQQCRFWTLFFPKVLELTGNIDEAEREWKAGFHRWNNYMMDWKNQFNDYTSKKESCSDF
Data set [18] deals with T3, Amine oxidase [flavin-containing] B. The experiment in a line: Inhibition of recombinant human MAO-B expressed in baculovirus infected insect cell microsomes at 10 uM using kynuramine as substrate measured after 30 mins by spectrophotometric assay relative to control. The settings on record: 0.5 h.
A short description of data set [19]: Drug metabolism in pH 7.4 PBS buffer assessed as 7-({1-[3-(3-Hydroxypropoxy)benzyl]piperidin-4-yl}methoxy)-3,4-dimethyl-2H-chromen-2-one formation at 100 uM up to 30 hrs in presence of glutathione by RP-HPLC method.
Data set [20] has as its target T1, Cholinesterase. The experiment in a line: Inhibition of human serum BuChE using butyrylthiocholine iodide as substrate by Ellman's method.
Data set [21] in a line: Drug metabolism in pH 7.4 PBS buffer at 100 uM after 24 hrs by RP-HPLC method.
The nature of data set [22]: Drug metabolism in pH 7.4 PBS buffer at 100 uM after 24 hrs in presence of cysteine by RP-HPLC method.
The nature of data set [23]: Drug metabolism in pH 7.4 PBS buffer assessed as 7-({1-[3-(3-Hydroxypropoxy)benzyl]piperidin-4-yl}methoxy)-3,4-dimethyl-2H-chromen-2-one formation at 100 uM up to 30 hrs by RP-HPLC method.
Data set [24] has as its target T2, Amine oxidase [flavin-containing] A. Kind of data set: Inhibition of recombinant human MAO-A expressed in baculovirus infected insect cell microsomes using kynuramine as substrate measured after 30 mins by fluorescence based assay.
Data set [25] in a line: Drug metabolism in pH 7.4 PBS buffer at 100 uM after 24 hrs in presence of glutathione by RP-HPLC method.
Data set [26] in a line: Drug metabolism in pH 7.4 PBS buffer assessed as 7-({1-[3-(3-Hydroxypropoxy)benzyl]piperidin-4-yl}methoxy)-3,4-dimethyl-2H-chromen-2-one formation at 100 uM up to 30 hrs in presence of cysteine by RP-HPLC method.

Active and inactive are the calls of the source. The rule behind the calls is not given here.

T1 sequence (P06276 whole entry): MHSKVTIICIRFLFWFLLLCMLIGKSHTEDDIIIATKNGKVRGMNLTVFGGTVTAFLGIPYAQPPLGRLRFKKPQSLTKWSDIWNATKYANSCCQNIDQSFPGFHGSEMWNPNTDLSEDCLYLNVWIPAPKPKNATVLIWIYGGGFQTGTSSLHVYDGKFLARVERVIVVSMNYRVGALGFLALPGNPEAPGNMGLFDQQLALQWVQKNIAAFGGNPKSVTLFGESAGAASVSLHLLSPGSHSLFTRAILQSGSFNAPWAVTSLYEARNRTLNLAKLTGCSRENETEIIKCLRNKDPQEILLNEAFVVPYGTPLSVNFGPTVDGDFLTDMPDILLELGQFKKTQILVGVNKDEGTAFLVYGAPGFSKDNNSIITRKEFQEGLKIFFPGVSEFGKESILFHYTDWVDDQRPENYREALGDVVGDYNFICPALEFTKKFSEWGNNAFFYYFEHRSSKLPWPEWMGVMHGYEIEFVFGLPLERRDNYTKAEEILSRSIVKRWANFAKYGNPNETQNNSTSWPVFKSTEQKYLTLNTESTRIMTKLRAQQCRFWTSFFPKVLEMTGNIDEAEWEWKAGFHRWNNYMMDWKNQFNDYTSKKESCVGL

In general, Papp A→B refers to the apparent permeability from the apical to the basolateral side of a cell layer. A word on the inhibition: it is the share of the control response that was lost under treatment. Usually half-life stands for how long it takes for the measured level to halve. Low values mean fast loss, high ones slow loss. As a reminder, the efflux ratio is the permeability from basolateral to apical divided by that in the opposite direction, in the common usage. Usually IC50 stands for the point on the concentration scale where inhibition reaches its midpoint. What is called Papp B→A is how fast a substance crosses the layer from the basolateral side. For the compound `Cc1c(C)c2ccc(OCC3CCN(CCCO[N+](=O)[O-])CC3)cc2oc1=O`, the Drug metabolism entry is “Metabolite not detected” in [1], “Metabolite not detected” in data set [5], “Metabolite detected” in data set [6] and “Tde” in [9]. The Papp A→B in data set [2] turned out to be 4.96 ×10⁻⁶ cm/s. The Activity in the data set on SH-SY5Y [3] was above 100 µM; with SH-SY5Y [10], “Dose-dependent effect”. The inhibition against Cholinesterase [4] was below 5%. Also, the half-life at 100 µM in [7] was 0.958 days. Also, the inhibition at 10 µM in [8] was determined as 36%. Moreover, the efflux ratio in data set [11] is 3.17. Also, the concentration for half-maximal inhibition (IC50) on Acetylcholinesterase is 860 nM; in [12], 250 nM. In data set [13], the Papp B→A turned out to be 15.7 ×10⁻⁶ cm/s.
In the case of `COc1cc2c(cc1OC)C(=O)C(CC1CCN(Cc3ccccc3)CC1)C2` (configuration not stated), the outcome in the data set on SH-SY5Y [14] was Active.
In the case of `O=c1ccc2ccc(OCC3CCN(CCCO)CC3)cc2o1`, the inhibition at 10 µM in data set [15] came to 48%; in [8], 26%; in data set [18], 39%. Besides, the inhibition in data set [16] was determined as 38%; in data set [17], 26%.
With `Cc1c(C)c2ccc(OCC3CCN(Cc4cccc(OCCCO[N+](=O)[O-])c4)CC3)cc2oc1=O`, the Drug metabolism result is “Metabolite not detected” in [19]; above 50% in data set [21]; “Tde” in data set [9]; above 50% in [22]; “Metabolite detected” in data set [23]; above 50% in data set [25]. Also, in data set [26], the Drug metabolism result is given as “Metabolite not detected”. The IC50 at Cholinesterase [20] came to 800 nM; on Acetylcholinesterase, 480 nM; in data set [12] it was 550 nM; in [24], 1200 nM. In data set [7], this compound had a half-life at 100 µM of 19.1 days.
